Literature values, collected in US10918699B2, “Therapeutic treatment for neurotrophic keratopathy” (priority 2017, dated 2021).

Assays:
[1] = test system: cultured sheets of corneal epithelial cells
corneal ulcers = details: systemic administration, humans, 1945 case series
[2] = test system: corneal epithelium wound healing; details: together with substance-P; several pre-clinical studies

insulin
cell migration and closure of artificial wounds [1]: promoted cell migration and closure of artificial wounds
healing of corneal ulcers (corneal ulcers): improved healing

Insulin-like growth factor-1 [IGF-1]
corneal epithelium wound healing [2]: act synergistically with substance-P
